Experimental data published in patent US11820762B2, “Compounds as potential therapeutic agents targeting various neurodegenerative diseases” (The Hong Kong University of Science and Technology, priority 2020, dated 2023).

Columns and labels:
[1] = Parallel artificial membrane permeability assay (PAMPA); type: in vitro ADME; conditions: PAMPA
Experimental: 500 μL of 500 μM test compound and 200 μM Equilibrium Standards for each test compound were prepared. 5 μL DMSO plus 245 μL PBS served as blank control. Firstly, 300 μL PBS was added to each well in the acceptor plate. With the donor plate in its tray, 5 μL 4% Lecithin in Dodecane was added directly to the well membranes of the donor plate. 200 μL of each 500 μM test compound was added to duplicate wells of the donor plate. The donor plate was carefully placed into the acceptor plate wells and incubated at 37° C. for 18 hours. Then the liquid in acceptor plate wells was collected as Acceptor Solution for analysis. Absorbance spectrum from 200 nm to 500 nm in 10 nm intervals was read to determine the peak absorbance of test compounds and blank control.
(§1) In addition, we also tested the permeability on live cells. Neuro2a cells treated with cA at different concentrations (10 μg/ml, 20 μg/ml) for different incubation time (24 h, 48 h) were lysed. Supernatants of cell lysates were collected and analyzed by UPLC-MS. Meanwhile, cell media from different treatment groups were used as control. […] In contrast, the intensity of cA signal was the same in the three corresponding cell media groups (FIG. 25, 4-6).

[2] = system: GMR-GAL4-(G4C2)29 Drosophila; assay: Drosophila feeding and external eye assay; type: in vivo; conditions: 100 μM in solid food during larval stage; day 7 after eclosion
Experimental: A fly line expressing 29 GGGGCC repeats (29R) (SEQ ID NO: 6), under the GMR-GAL4 promoter (GMR-GAL4-(G4C2)29 (SEQ ID NO: 6)), was used. Both GMR-GAL4-(G4C2)29 (SEQ ID NO: 6) and WT flies were raised at room temperature (25° C.) on a cornmeal medium supplemented with dry yeast. […] Parent flies for cross were set in solid food containing testing compound, and F1 larvae were thus fed with food continuously until eclosion. After eclosion, F1 flies were transferred to normal food containers without compounds.
Eye images of GMR-GAL4-(G4C2)29 (SEQ ID NO: 6) or WT adult flies at day 7 after eclosion were captured using a CCD camera on an Olympus stereomicroscope. Eye morphologies of flies in different treatment groups were compared to evaluate the retina degeneration level. The affected eye area and total eye area were measured to calculate the degeneration ratio by ImageJ.
We next treated WT Drosophila and Drosophila with GMR-GAL4 driver promoted expression of (G4C2)29-repeats (SEQ ID NO: 6) (GMR-GAL4-(G4C2)29) (SEQ ID NO: 6) with cA or cC by feeding larvae with compounds in solid food. DMSO was used as a negative control. The eyes of day 7 adult Drosophila with GMR-GAL4-(G4C2)29 (SEQ ID NO: 6) were much rougher than the same age WT fly, indicating eye degeneration (FIG. 8E). The affected eye degeneration area accounted for over 50% of the whole eye (FIG. 8F).

[3] = system: human telomeric htel23 G4; assay: 1D 1H-NMR titration of human telomeric htel23 G4; type: binding; conditions: 1:10 titration
Experimental: (§2) Single […] were purchased from Integrated DNA Technologies (IDT) and Takara. Single-strand DNA/RNA sample at 100 μM was then annealed by heating up to 95° C. for 15 mins, and slowly cooled to room temperature in the annealing buffer (70 mM KCl, 20 mM potassium phosphate (pH 7.0)) for overnight. The final NMR samples contained 0.1 mM DNA or RNA in 70 mM KCl and 20 mM potassium phosphate buffer (pH 7.0).
(§3) The 1D ^1H-NMR spectra were performed at 25° C. All compounds were dissolved in isotope-labeled d6-DMSO (Sigma-Aldrich) at about 50 mM concentration, working as stock solutions. To avoid chemical shift changes of DNA/RNA G4 resulted from d6-DMSO addition, […] d6-DMSO was added into 500 μL of 0.1 mM DNA/RNA G4 solution in the NMR buffer (20 mM potassium phosphate buffer and 70 mM KCl, pH 7.0, 10% D2O) and then 1D ^1H-NMR spectrum was recorded as a reference. During NMR titration experiments of adding each compound into the DNA/RNA G4 solution, the maximal volume of 10 μL of each compound in d6-DMSO solution was regarded as a final data point.
(§4) In addition to the four-repeat G4C2 DNA G4, there are parallel and hybrid G4 conformations formed simultaneously by the two-repeat G4C2 DNA^38,39. […]

Neuro2a cells = assay: Permeability on live cells (cell lysates analysed by UPLC-MS); type: in vitro ADME; conditions: 10, 20 μg/ml; 24 h, 48 h; UPLC-MS of lysates
Experimental: as §1

[4] = system: DNA G-quadruplex formed by chicken DNA replication origin; assay: 1D 1H-NMR titration of chicken DNA G-quadruplex; type: binding; conditions: 1:3 titration
Experimental: as §2, §3, §4

[5] = system: human telomeric variant htel21_T18 G4; assay: 1D 1H-NMR titration of human telomeric variant htel21_T18 G4; type: binding; conditions: cA at 1:10
Experimental: as §2, §3, §4

[6] = system: RNA (G4C2)2 (SEQ ID NO: 8) G4; assay: 1D 1H-NMR titration of RNA (G4C2)2 G4; type: binding; conditions: ratios 1:3, 1:5, 1:10
Experimental: as §2
as §3, with “point. […]” for “point.”

[7] = system: DNA (G4C2)2 (SEQ ID NO: 4) G4; assay: 1D 1H-NMR titration of DNA (G4C2)2 G4; type: binding; conditions: cA at 1:1, 1:5, 1:10
Experimental: as §2, §3, §4

| SMILES | permeability (PAMPA) [1] | eye degeneration phenotype [2] | binding to htel23 G4 by NMR titration [3] | entry into live cells (Neuro2a cells) | binding to chicken DNA G-quadruplex by NMR titration [4] | binding to htel21_T18 G4 by NMR titration [5] | binding to RNA (G4C2)2 G4 by NMR titration [6] | binding to DNA (G4C2)2 G4 by NMR titration [7] |
| --- | --- | --- | --- | --- | --- | --- | --- | --- |
| CC(=O)Cc1cc2c(c(O)c1C(=O)O)-c1c(c(O)c3oc4c(O[C@@H]5O[C@H](C(=O)O)[C@@H](O)[C@H](O)[C@H]5O)cccc4c(=O)c3c1O)CC2 [cC, chrexanthomycin C] | good permeability | significantly rescuing the eye degeneration phenotype | – | – | – | – | – | – |
| CC(=O)Cc1cc2c(c(O)c1C(=O)O)-c1c(c(O)c3oc4c(O[C@@H]5OC(C(=O)O)=C[C@H](O)[C@H]5O)cccc4c(=O)c3c1O)CC2 [cA, chrexanthomycin A] | – | significantly rescuing the eye degeneration phenotype | no obvious chemical shift changes | could penetrate cell membrane and enter into cells | did not show binding | no obvious chemical shift changes | Chemical shift changes were observed | neither with 1:1 (light brown), 1:5 (blue) nor 1:10 (pink) titration of cA made significant chemical shift changes |
